Laboratory results: BindingDB's records for patent US20250163064 (Amgen, 2025)

Tests used:
GTPase KRas [G12D,C118A] = GTPase KRas [G12D,C118A] (Homo sapiens, UniProt P01116, C118A/G12D); experiment: KRAS G12D Coupled Nucleotide Exchange Assay
Procedure: The assay plates were then read on a PerkinElmer En Vision Multilabel Reader, using AlphaScreen technology, and data were analyzed using a 4-parameter logistic model to calculate IC50 values.

kras g12d tr-fret = kras g12d tr-fret (Homo sapiens, UniProt P01116, G12D); experiment: KRAS G12D TR-FRET Assay
Procedure: The His-tagged KRAS G12D protein (Amgen) was diluted to 20 nM in Assay Buffer (20 mM HEPES, pH 7.4, 10 mM MgCl2, 50 mM NaCl, 0.1% BSA, 0.01% Tween-20, 10 μM GDP) and 2 μL was added to the appropriate wells of the 384-well plate. The plate was incubated for 30 minutes at rt. Biotinylated KRPep-2d substrate (Amgen) was diluted to […] in Assay Buffer and 2 AL was added to all wells and incubated for 1 hour at room temperature. Detection Reagent (0.4 nM LANCE Eu-W1024 Anti-6×His (Perkin Elmer AD0401), 5 nM streptavidin-d2 (Cisbio 610SADLA)) was prepared in Assay Buffer, then 4 AL was added to the plate and incubated for 1 h at rt.

Chain of kras g12d tr-fret (P01116 whole entry G12D): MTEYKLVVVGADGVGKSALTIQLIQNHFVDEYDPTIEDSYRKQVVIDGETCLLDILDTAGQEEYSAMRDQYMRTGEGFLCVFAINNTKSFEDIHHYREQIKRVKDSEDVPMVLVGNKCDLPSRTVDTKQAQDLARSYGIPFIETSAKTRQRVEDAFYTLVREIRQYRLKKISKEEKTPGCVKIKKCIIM
Chain of GTPase KRas [G12D,C118A] (P01116 whole entry G12D/C118A, looked up): as the sequence (P01116 whole entry G12D) above, with C118A counted along it

Compound | IC50 (GTPase KRas [G12D,C118A]) | IC50 (kras g12d tr-fret)
N#Cc1c(N)sc2c(F)ccc(-c3c(Cl)cc4c(N5CC6CC(O)C(C6)C5)nc(OC[C@@]56CCCN5C[C@H](F)C6)nc4c3F)c12 (mixture of isomers) [US20250163064, Example 7] | 6 nM | 4 nM
N#Cc1c(N)sc2c(F)ccc(-c3c(Cl)cc4c(N5CCCC(C#N)CC5)nc(OC[C@@]56CCCN5C[C@H](F)C6)nc4c3F)c12 (some centres undefined) [US20250163064, Example 3] | 7 nM | 4 nM
N#Cc1c(N)sc2c(F)ccc(-c3c(Cl)cc4c(N5CCCC[C@@H](O)C5)nc(OC[C@@]56CCCN5C[C@H](F)C6)nc4c3F)c12 [US20250163064, Example 4] | 6 nM | 4 nM
N#Cc1c(N)sc2c(F)ccc(-c3c(Cl)cc4c(N5CCOCC(=O)C5)nc(OC[C@@]56CCCN5C[C@H](F)C6)nc4c3F)c12 [US20250163064, Example 6] | 5 nM | 
N#Cc1c(N)sc2c(F)ccc(-c3c(Cl)cc4c(N5CCCC6(CNC(=O)O6)C5)nc(OC[C@@]56CCCN5C[C@H](F)C6)nc4c3F)c12 (some centres undefined) [US20250163064, Example 17] | 6 nM | 3 nM
